Assay results taken from ChEMBL document CHEMBL4665624, “Synthesis of 5-(4-(1H-phenanthro[9,10-d]imidazol-2-yl)benzylidene)thiazolidine-2,4-dione as promising DNA and serum albumin-binding agents and evaluation of antitumor activity” (Eur J Med Chem, 2019).
Activity calls are given as the source filed them. No cut-off for these calls is given here.

Assays:
[1] = system: HEK293; test: Cytotoxicity against human HEK293 assessed as reduction in cell viability at 0.01 uM after 48 hrs by MTT assay; assay type: cell-based; details: hek293, 48 h
[2] = biological target: T1, Albumin (Bos taurus, UniProt P02769); test: Binding affinity to bovine serum albumin assessed as quenching constant at 318K by fluorescence emission spectrum analysis; assay type: ADME, cell-free; details: cattle
[3] = biological target: T1, Albumin; test: Binding affinity to bovine serum albumin assessed as appearance of new fluorescence band at 510 nm at 0-12 uM by fluorescence emission spectrum analysis; assay type: ADME, cell-free; details: cattle
[4] = system: NCI-H522; test: Antitumor activity against human NCI-H522 cells assessed as cell growth inhibition at 10 uM incubated for 48 hrs by sulforhodamine B assay; assay type: functional; details: read-out: GI
[5] = system: Calf thymus DNA; test: Binding affinity to minor groove of calf thymus DNA assessed as ICD band intensity between 350 and 400 nm at 1 uM by CD spectroscopy; assay type: nucleic-acid assay; details: Bos taurus
[6] = system: A549; test: Cytotoxicity against human A549/ATCC assessed as reduction in cell viability at 0.1 uM after 48 hrs by MTT assay; assay type: functional
[7] = system: OVCAR-3; test: Antitumor activity against human OVCAR-3 cells assessed as cell growth inhibition at 10 uM incubated for 48 hrs by sulforhodamine B assay; assay type: functional; details: read-out: GI
[8] = system: HCT-116; test: Antitumor activity against human HCT116 cells assessed as cell growth inhibition at 10 uM incubated for 48 hrs by sulforhodamine B assay; assay type: functional; details: read-out: GI
[9] = system: Hs-578T; test: Antitumor activity against human HS 578T cells assessed as cell growth inhibition at 10 uM incubated for 48 hrs by sulforhodamine B assay; assay type: functional; details: read-out: GI
[10] = system: MDA-MB-435; test: Antitumor activity against human MDA-MB-435 cells assessed as cell growth inhibition at 10 uM incubated for 48 hrs by sulforhodamine B assay; assay type: functional; details: read-out: GI
[11] = system: SF-268; test: Antitumor activity against human SF268 cells assessed as cell growth inhibition at 10 uM incubated for 48 hrs by sulforhodamine B assay; assay type: functional; details: read-out: GI
[12] = Ratio of Kb for human DNA in blood to Kb for calf thymus DNA
[13] = system: Malme-3M; test: Antitumor activity against human MALME-3M cells assessed as cell growth inhibition at 10 uM incubated for 48 hrs by sulforhodamine B assay; assay type: functional; details: read-out: GI
[14] = biological target: T1, Albumin; test: Binding affinity to bovine serum albumin assessed as hydrophobic interaction by measuring change in entropy at 298K by thermodynamic based analysis; assay type: ADME, cell-free; details: cattle
[15] = biological target: T1, Albumin; test: Binding affinity to bovine serum albumin assessed as increase in absorption intensity at 280 nm at 0-10 uM by UV-vis absorption spectral titration analysis; assay type: ADME, cell-free; details: cattle
[16] = biological target: T1, Albumin; test: Binding affinity to bovine serum albumin assessed as Stern-Volmer quenching constant at 308K by fluorescence emission spectrum analysis; assay type: ADME, cell-free; details: cattle
[17] = system: SW-620; test: Antitumor activity against human SW620 cells assessed as cell growth inhibition at 10 uM incubated for 48 hrs by sulforhodamine B assay; details: SW-620, 48 h, read-out: GI
[18] = biological target: T1, Albumin; test: Binding affinity to bovine serum albumin assessed as binding constant at 308K by fluorescence emission spectrum analysis; assay type: ADME, cell-free; details: cattle

T1 sequence (P02769 whole entry): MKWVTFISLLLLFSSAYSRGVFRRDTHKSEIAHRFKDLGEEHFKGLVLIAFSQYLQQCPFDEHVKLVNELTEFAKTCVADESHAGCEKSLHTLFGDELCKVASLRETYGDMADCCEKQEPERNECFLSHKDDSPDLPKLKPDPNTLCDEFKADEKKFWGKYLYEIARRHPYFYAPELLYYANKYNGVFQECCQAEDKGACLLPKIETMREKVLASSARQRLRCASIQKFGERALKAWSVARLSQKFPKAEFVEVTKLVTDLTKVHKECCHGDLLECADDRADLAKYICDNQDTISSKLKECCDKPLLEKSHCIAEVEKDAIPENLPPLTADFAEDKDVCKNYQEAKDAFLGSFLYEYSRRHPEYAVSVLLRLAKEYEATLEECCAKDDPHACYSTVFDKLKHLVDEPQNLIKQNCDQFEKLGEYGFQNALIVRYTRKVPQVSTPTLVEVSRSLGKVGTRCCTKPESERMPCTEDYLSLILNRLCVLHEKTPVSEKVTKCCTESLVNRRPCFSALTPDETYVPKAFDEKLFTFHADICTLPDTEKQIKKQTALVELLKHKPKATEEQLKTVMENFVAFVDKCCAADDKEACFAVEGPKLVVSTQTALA

With O=C1NC(=O)/C(=C/c2ccc(-c3nc4c5ccccc5c5ccccc5c4[nH]3)cc2)S1 as the molecule, how does the Activity [1] read?
The Activity was 4%.

And the Kq [2]?
Its Kq is 3.51 10^13/M/sec.

What about the Activity [3] of the same molecule?
Its Activity is “Active”.

What about the inhibition of growth at 10 µM [4] of the same molecule?
Its inhibition of growth at 10 µM is 47.6%.

And the Activity [5]?
The Activity was “inactive”.

What about the Activity [6] of the same molecule?
Its Activity is 59%.

What about the inhibition of growth at 10 µM [7] of the same molecule?
Its inhibition of growth at 10 µM is 21.3%.

What about the inhibition of growth at 10 µM [8] of the same molecule?
The inhibition of growth at 10 µM was 65.5%.

What about the inhibition of growth at 10 µM [9] of the same molecule?
The inhibition of growth at 10 µM was 17.6%.

What about the inhibition of growth at 10 µM [10] of the same molecule?
Its inhibition of growth at 10 µM is 67.4%.

And the inhibition of growth at 10 µM [11]?
Its inhibition of growth at 10 µM is 12.3%.

And the Ratio [12]?
The Ratio was 2.

And the inhibition of growth at 10 µM [13]?
The inhibition of growth at 10 µM was 14.8%.

What about the deltaS [14] of the same molecule?
The deltaS was 20.43 cal/mol.K.

And the Activity [15]?
The Activity was “Active”.

What about the KSV [16] of the same molecule?
The KSV was 8.15 10^5/M.

And the inhibition of growth at 10 µM [17]?
Its inhibition of growth at 10 µM is 22.8%.

What about the Kb [18] of the same molecule?
The Kb was 3.56 10^6/M.
